We go through one compound from patent publication US11998008B2, “Pesticides and methods of controlling pests” (The State of Israel, Ministry of Agriculture & Rural …, priority 2017, dated 2024).

SMILES strings stand for the structures.

The subject of one data set is A. alternata. Description: Fungicidal activity assay on PDA in sealed Petri dish (growth inhibition and mortality). The format is cell-based, Alternaria alternata. The note with it: Alternaria alternata, NA + number = still viable in the highest concentration tested (given as >), read-out: M - Mortality, minimal concentration that killed the fungus.
Data set [1] has as its system Fusarium oxysporum f sp. radicis-lycopersici (Forl). The experiment in a line: Effect on Forl in loam soil in buckets, applied by irrigation system. The format is in vivo. The conditions noted are these: open and close conditions, except depth 30 cm at the lowest concentration in close condition. The method, then: The activity of trans-2-octenal was examined against phytopathogenic fungi and weeds. The experiment was performed in large buckets (110 L), which bottoms were removed, and therefore the loam in the bucket was continuous with the ground. The soil was inoculated one day prior the application of the compound. Soil inoculation was performed as follows: spores of Fusarium oxysporum f sp. radicis-cucumerinum (FORC) were collected from culture plates and 25 mL of spore suspension at concentration of 9×10^5 was mixed with 10 L of tap water and then poured on the soil of each bucket. […] Half of the buckets were sealed with nylon while the other half remained open. Five days later, soil samples from three different depths (10, 20, and 30 cm) were taken from each bucket for fungal isolation and determination of fungal survival. […] After 3 days, the number of colonies was counted. […] Similar results were obtained at close condition, except at depth 30 cm at concentration of 62.5 ppm.
The experiment was repeated with the following modifications: different phytopathogenic fungus—Fusarium oxysporum f sp. radicis-lycopersici (Forl), lower concentrations—31.25, 62.5, and 93.75 ppm, and the application of the compound was done using the irrigation system.

Another data set has as its system tomato strain Ikram. The conditions noted are these: in vivo, 11 days.
Data set [2] concerns Meloidogyne javanica second stage juveniles (J2s). The experiment in a line: Nematocidal activity: viability of J2 nematodes after 2 days exposure to the compound in a sealed box. The format is in vivo. The conditions noted are these: comparison within the series.
The test system of a further data set is P. digitatum. The experiment in a line: Fungicidal activity assay on PDA in sealed Petri dish (growth inhibition and mortality). The conditions noted are these: Penicillium digitatum, NA + number = still viable in the highest concentration tested (given as >), read-out: M - Mortality, minimal concentration that killed the fungus. It counts as cell-based, Penicillium digitatum.

A further data set has as its system Tomato plants. The experiment in a line: Phytotoxicity on tomato plants in soil, compound on perlite particles. It counts as in vivo. The conditions noted are these: one day after treatment. The text has this: In exemplary procedures, the phytotixicity of trans-2-octenal and 2-cyclopenten-1-one was examined in triplicates for each concentration: 250, 1,000, 4,000, and 20,000 ppm compared to control.

Method for tomato strain Ikram: An experiment in a larger scale was performed in loam soil in which the seedling were planted directly in the treated plot. The soil was treated with 0, 25, 50, 100, 200, 400, 800, and 1,600 ppm of emulsion of trans-2-octenal. The compound was applied using the irrigation system. A day later, tomato seedling strains Ikram and Abigail and lettuce seedling strain Raviv (10 seedlings each) were planted into the treated soil of each concentration. Eleven days later, the number of viable seedlings was counted.

For the compound `CCCCC/C=C/C=O` [trans-2-octenal], the MFC with A. alternata and in the data set on P. digitatum was 12.5 µg/mL in each case. Further, the “concentration at which elimination of Forl was achieved” value in data set [1] was 31.25 ppm. Further, the “concentration at which phytotoxic effect was displayed” value in the data set with tomato strain Ikram was 800 ppm. The “nematocidal activity in words” value in data set [2] is on record as “relatively less potent nematicide”. The phytotoxicity result in the data set with Tomato plants (250 ppm), in the data set with Tomato plants (1,000 ppm), in the data set on Tomato plants (4,000 ppm) and with Tomato plants (20,000 ppm) was “No phytotoxicity” each time.
